What follows are compounds tested against T1, FLK-1 receptor (Mus musculus, UniProt P35918) (assay: FLK-1 ELISA (kinase activity of the FLK-1 receptor in FLK-1/NIH3T3 cells, VEGF stimulated)).
T1 construct: expressed in transfected cells; host or cells: NIH3T3 C7#3
T1 sequence (P35918 20-1345): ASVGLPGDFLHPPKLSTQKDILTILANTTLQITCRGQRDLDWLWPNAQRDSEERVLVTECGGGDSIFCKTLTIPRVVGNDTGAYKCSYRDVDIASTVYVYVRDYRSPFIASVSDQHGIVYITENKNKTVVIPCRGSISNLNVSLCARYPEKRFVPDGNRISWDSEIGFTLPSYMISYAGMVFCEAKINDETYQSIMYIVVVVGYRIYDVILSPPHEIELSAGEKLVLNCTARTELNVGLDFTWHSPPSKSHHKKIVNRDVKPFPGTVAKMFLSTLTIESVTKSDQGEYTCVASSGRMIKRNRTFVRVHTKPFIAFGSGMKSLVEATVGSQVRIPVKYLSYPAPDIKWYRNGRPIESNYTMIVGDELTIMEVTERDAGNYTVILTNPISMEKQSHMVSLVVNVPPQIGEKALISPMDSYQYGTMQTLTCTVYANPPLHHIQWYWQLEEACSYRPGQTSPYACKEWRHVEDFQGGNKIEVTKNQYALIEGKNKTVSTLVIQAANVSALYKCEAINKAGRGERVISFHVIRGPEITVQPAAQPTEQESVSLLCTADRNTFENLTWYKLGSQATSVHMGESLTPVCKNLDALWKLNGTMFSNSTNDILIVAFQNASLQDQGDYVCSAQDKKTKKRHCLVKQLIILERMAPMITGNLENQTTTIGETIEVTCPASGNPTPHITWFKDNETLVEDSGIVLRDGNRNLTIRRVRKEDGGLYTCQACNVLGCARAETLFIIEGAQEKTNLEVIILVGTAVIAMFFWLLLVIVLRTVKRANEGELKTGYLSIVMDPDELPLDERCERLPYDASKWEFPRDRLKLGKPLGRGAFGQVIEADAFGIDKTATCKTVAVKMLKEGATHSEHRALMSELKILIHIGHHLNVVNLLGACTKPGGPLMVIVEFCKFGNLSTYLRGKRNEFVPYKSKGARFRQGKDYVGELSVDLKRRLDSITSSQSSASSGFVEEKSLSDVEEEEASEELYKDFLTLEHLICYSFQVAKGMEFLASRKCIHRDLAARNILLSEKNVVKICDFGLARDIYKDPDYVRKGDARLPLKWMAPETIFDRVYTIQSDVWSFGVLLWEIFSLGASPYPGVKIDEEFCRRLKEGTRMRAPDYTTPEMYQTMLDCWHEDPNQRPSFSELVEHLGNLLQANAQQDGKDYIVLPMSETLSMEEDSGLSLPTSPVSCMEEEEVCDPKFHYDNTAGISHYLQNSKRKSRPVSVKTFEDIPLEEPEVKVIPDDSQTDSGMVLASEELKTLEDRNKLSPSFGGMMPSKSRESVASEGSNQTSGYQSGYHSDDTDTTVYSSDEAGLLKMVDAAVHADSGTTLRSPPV
Type: cell-based
How it was run: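 NIH3T3 C7#3 cells expressing FLK-1 were seeded at 25.000 cells/well, serum-starved overnight in 0.1% FBS, then treated with compound for two hours at 37°C (final DMSO 0.5%) before VEGF stimulation. Receptor was captured on anti-rabbit IgG-coated ELISA plates bearing affinity-purified anti-FLK-1 antiserum.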
For `O=C1Nc2c(Br)cc(Br)cc2C1=Cc1ccc(O)cc1O` [10723/A08], the “Fik Kinase %Inhibition” value was -12.9%. In the case of `O=C1Nc2ccc(S(=O)(=O)Nc3ccc(C(F)(F)F)cc3)cc2C1=Cc1cccc(Br)c1` [10723/E10], the “Fik Kinase %Inhibition” value is reported as 5.2%. In the case of `O=C1Nc2ccc(S(=O)(=O)Nc3ccc(C(F)(F)F)cc3)cc2C1=Cc1ccccc1Br` [10723/E07], the “Fik Kinase %Inhibition” value is reported as 17.4%. With `O=C1Nc2ccc(S(=O)(=O)Nc3ccc(C(F)(F)F)cc3)cc2C1=Cc1ccc(F)cc1` [10717/E05] the “Fik Kinase %Inhibition” value was 13.2%. With `COc1ccc(C=C2C(=O)Nc3ccc(Br)c(C)c32)c(O)c1` [10723/C09] the “Fik Kinase %Inhibition” value was -22.3%. For `CNS(=O)(=O)c1ccc2c(c1)C(=Cc1ccc(OC)cc1O)C(=O)N2` [10723/D09], the “Fik Kinase %Inhibition” value was 50.4%. With `Cc1c(Br)ccc2c1C(=Cc1cc(O)c(O)c(Br)c1)C(=O)N2` [10723/C04] the “Fik Kinase %Inhibition” value was 8.8%. In the case of `O=C1Nc2ccc(S(=O)(=O)Nc3ccc(C(F)(F)F)cc3)cc2C1=Cc1ccc(O)c(O)c1O` [10723/E02], the “Fik Kinase %Inhibition” value is reported as 8.1%.
